In publication PMC4769034 (Journal of medicinal chemistry, 2015):
Converted amounts (≈) assume the structure as drawn. “Also recorded” adds a separate entry of the source.

Molecular target: T1, EPAC1 (Homo sapiens, UniProt O95398)
T1 sequence (O95398 1-881 isoform O95398-3): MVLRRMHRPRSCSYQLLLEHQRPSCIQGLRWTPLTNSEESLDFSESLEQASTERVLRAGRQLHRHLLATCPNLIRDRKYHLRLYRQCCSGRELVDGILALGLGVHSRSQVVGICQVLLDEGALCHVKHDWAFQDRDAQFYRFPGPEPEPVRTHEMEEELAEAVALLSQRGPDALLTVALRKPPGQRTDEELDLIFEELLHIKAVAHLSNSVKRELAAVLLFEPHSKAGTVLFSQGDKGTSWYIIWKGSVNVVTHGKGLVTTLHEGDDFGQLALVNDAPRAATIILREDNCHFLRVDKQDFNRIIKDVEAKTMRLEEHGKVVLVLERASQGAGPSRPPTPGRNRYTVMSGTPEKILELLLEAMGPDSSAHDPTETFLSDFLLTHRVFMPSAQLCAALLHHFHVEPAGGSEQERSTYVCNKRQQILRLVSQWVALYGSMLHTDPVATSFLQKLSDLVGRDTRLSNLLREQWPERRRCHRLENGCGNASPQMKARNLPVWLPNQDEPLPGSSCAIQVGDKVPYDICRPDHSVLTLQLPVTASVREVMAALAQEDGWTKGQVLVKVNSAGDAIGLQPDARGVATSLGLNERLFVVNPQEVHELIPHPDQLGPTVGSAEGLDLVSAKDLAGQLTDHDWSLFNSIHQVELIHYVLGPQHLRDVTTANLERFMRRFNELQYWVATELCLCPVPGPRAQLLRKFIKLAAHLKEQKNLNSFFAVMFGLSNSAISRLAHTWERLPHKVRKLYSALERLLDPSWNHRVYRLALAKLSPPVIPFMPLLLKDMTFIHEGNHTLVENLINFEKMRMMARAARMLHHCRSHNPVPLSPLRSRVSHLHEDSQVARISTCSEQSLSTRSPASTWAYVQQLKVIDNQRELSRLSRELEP
Assay: In vitro EPAC1 GEF activity assay
Format: biochemical
Conditions: not given
In the case of `CC(C)(C)c1cc(C(=O)/C(C#N)=N/Nc2cc(Cl)cc(Cl)c2)no1` [Compound 22, 2-(5-tert-Butylisoxazol-3-yl)-N′-(3,5-dichlorophenyl)-2-oxoacetohydrazonoyl Cyanide], the IC50 is reported as < 5 µM.

Molecular target: T2, EPAC2 (Mus musculus, UniProt Q9EQZ6)
T2 sequence (Q9EQZ6 1-993 isoform Q9EQZ6-3): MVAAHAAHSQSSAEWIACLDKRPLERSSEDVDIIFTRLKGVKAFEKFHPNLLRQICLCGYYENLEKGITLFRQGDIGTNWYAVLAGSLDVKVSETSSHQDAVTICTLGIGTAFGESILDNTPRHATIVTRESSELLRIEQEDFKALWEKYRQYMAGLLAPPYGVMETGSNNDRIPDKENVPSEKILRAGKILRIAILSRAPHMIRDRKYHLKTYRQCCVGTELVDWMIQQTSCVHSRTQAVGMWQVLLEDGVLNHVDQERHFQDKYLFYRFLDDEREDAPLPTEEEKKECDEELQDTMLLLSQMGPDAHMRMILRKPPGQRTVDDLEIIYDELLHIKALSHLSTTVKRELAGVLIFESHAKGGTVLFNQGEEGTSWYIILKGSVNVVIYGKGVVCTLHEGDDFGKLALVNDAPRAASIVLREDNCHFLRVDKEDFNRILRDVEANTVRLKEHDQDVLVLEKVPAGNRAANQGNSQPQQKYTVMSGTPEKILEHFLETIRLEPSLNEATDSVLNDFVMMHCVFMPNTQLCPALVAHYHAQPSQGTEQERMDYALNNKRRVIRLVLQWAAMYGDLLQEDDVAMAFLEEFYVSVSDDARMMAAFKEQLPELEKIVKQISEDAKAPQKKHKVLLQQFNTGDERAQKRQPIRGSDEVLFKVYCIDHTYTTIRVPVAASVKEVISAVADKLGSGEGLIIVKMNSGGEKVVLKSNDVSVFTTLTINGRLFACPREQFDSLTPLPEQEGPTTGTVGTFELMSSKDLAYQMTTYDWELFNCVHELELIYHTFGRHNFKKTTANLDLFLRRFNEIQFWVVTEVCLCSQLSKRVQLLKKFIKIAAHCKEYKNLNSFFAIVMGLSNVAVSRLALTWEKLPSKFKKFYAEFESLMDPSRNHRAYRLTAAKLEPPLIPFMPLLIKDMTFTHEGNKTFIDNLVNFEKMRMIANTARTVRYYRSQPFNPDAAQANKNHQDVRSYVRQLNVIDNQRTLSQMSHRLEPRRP
Assay: 8-NBD-cAMP competition assay
Conditions: 8-NBD-cAMP competition
With `Cc1cc(NC(=O)C(C#N)=NNc2cccc(Cl)c2)no1` [Compound 52, 2-[(3-Chlorophenyl)-hydrazono]-2-cyano-N-(5-methyl-isoxazol-3-yl)acetamide] the “EPAC2 binding activity in words” value was “completely inactive”.
With `CC(C)(C)c1cc(NC(=O)C(C#N)=NNc2cccc(Cl)c2)no1` [Compound 51, N-(5-tert-Butyl-isoxazol-3-yl)-2-[(3-chlorophenyl)-hydrazono]-2-cyanoacetamide] the “EPAC2 binding activity in words” value was “completely inactive”.
For `N#C/C(=N\Nc1cc(Cl)c(Cl)c(Cl)c1)C(=O)c1cc(-c2ccccc2)on1` [Compound 48, N′-(3,4,5-Trichlorophenyl)-2-oxo-2-(5-phenylisoxazol-3-yl)-acetohydrazonoyl Cyanide], the “EPAC2 binding activity in words” value was “totally inactive”.
In the case of `CC(C)(C)c1cc(C(=O)/C(C#N)=N/Nc2cccc(CO)c2)no1` [Compound 19, 2-(5-tert-Butylisoxazol-3-yl)-N′-(3-(hydroxymethyl)phenyl)-2-oxoacetohydrazonoyl Cyanide], the “EPAC2 binding activity in words” value is reported as “significant loss of activity”.
In the case of `N#C/C(=N\Nc1cccc(Cl)c1)C(=O)c1cc(-c2ccccc2)on1` [Compound 41, N′-(3-Chlorophenyl)-2-oxo-2-(5-phenylisoxazol-3-yl)-acetohydrazonoyl Cyanide], the “EPAC2 binding activity in words” value is reported as “totally inactive”.
With `CC(C)(C)c1cc(C(=O)N/N=C/c2cccc(Cl)c2)no1` [Compound 56, (E)-5-(tert-Butyl)-N′-(3-chlorobenzylidene)isoxazole-3-carbohydrazide] the “EPAC2 binding activity in words” value was “entire loss of potency; also recorded: no significant activity”.
For `CC(C)(C)c1cc(-c2n[nH]c(N)c2/N=N/c2cccc(Cl)c2)no1` [Compound 57, 3-(5-tert-Butylisoxazol-3-yl)-4-((3-chlorophenyl)diazenyl)-1H-pyrazol-5-amine], the “EPAC2 binding activity in words” value was “entire loss of potency; also recorded: no significant activity”.
In the case of `COc1cccc(N/N=C(\C#N)C(=O)c2cc(C(C)(C)C)on2)c1` [Compound 18, 2-(5-tert-Butylisoxazol-3-yl)-N′-(3-methoxyphenyl)-2-oxoacetohydrazonoyl Cyanide], the “EPAC2 binding activity in words” value is reported as “significant loss of activity”.
In the case of `CC(C)(C)c1cc(C(=O)Nc2cccc(Cl)c2)no1` [Compound 55, 5-tert-Butyl-N-(3-chlorophenyl)isoxazole-3-carboxamide], the “EPAC2 binding activity in words” value is reported as “entire loss of potency; also recorded: no significant activity”.
For `CC(C)(C)c1cc(NC(=O)Nc2cccc(Cl)c2)no1` [Compound 54, 1-(5-tert-Butylisoxazol-3-yl)-3-(3-chlorophenyl)urea], the “EPAC2 binding activity in words” value was “entire loss of potency; also recorded: no significant activity”.
With `CC(C)(C)c1cc(NC(=O)c2cccc(Cl)c2)no1` [Compound 53, N-(5-(tert-Butyl)isoxazol-3-yl)-3-chlorobenzamide] the “EPAC2 binding activity in words” value was “entire loss of potency; also recorded: no significant activity”.
For `CC(=O)c1cccc(N/N=C(\C#N)C(=O)c2cc(C(C)(C)C)on2)c1` [Compound 17, N′-(3-Acetylphenyl)-2-(5-tert-butylisoxazol-3-yl)-2-oxoacetohydrazonoyl Cyanide], the “EPAC2 binding activity in words” value was “dramatic loss of activity”.

Same assay, conditions: vs compound 1
In the case of `CC(C)(C)c1cc(C(=O)/C(C#N)=N/Nc2ccccc2Cl)no1` [Compound 9, 2-(5-tert-Butylisoxazol-3-yl)-N′-(2-chlorophenyl)-2-oxoacetohydrazonoyl Cyanide], the “fold loss of EPAC2 binding affinity / inhibitory activity in comparison with 1” value is reported as 3 fold.
In the case of `CC(C)(C)c1cc(C(=O)/C(C#N)=N/Nc2cc(Cl)cc(Cl)c2)no1` [Compound 22, 2-(5-tert-Butylisoxazol-3-yl)-N′-(3,5-dichlorophenyl)-2-oxoacetohydrazonoyl Cyanide], the “fold more potent than parent compound 1” value is reported as “about 5 fold”.
For `CC(C)(C)c1cc(C(=O)/C(C#N)=N/Nc2ccccc2)no1` [Compound 8, 2-(5-tert-Butylisoxazol-3-yl)-N′-phenyl-2-oxoacetohydrazonoyl Cyanide], the “fold loss of EPAC2 binding affinity / inhibitory activity in comparison with 1” value was ~7 fold.
With `CC(C)(C)c1cc(C(=O)/C(C#N)=N/Nc2ccc(Cl)cc2)no1` [Compound 10, 2-(5-tert-Butylisoxazol-3-yl)-N′-(4-chlorophenyl)-2-oxoacetohydrazonoyl Cyanide] the “fold loss of EPAC2 binding affinity / inhibitory activity in comparison with 1” value was 3 fold.
In the case of `CC(C)(C)c1cc(C(=O)/C(C#N)=N/Nc2ccc(Cl)c(Cl)c2)no1` [Compound 23, 2-(5-tert-Butylisoxazol-3-yl)-N′-(3,4-dichlorophenyl)-2-oxoacetohydrazonoyl Cyanide], the “fold more potent than parent compound 1” value is reported as ~3 fold.

Same assay, conditions: vs compound 8
With `CC(C)(C)c1cc(C(=O)/C(C#N)=N/Nc2cccc(Br)c2)no1` [Compound 11, 2-(5-tert-Butylisoxazol-3-yl)-N′-(3-bromophenyl)-2-oxoacetohydrazonoyl Cyanide] the “fold increase in potency compared to nonsubstituted analogue 8” value was 3–4 fold.
In the case of `Cc1cccc(N/N=C(\C#N)C(=O)c2cc(C(C)(C)C)on2)c1` [Compound 20, 2-(5-tert-Butylisoxazol-3-yl)-2-oxo-N′-m-tolylacetohydrazonoyl Cyanide], the “fold increase in potency compared to nonsubstituted analogue 8” value is reported as “about 2 fold”.
In the case of `CC(C)(C)c1cc(C(=O)/C(C#N)=N/Nc2cccc(F)c2)no1` [Compound 12, 2-(5-tert-Butylisoxazol-3-yl)-N′-(3-fluorophenyl)-2-oxoacetohydrazonoyl Cyanide], the “fold increase in potency compared to nonsubstituted analogue 8” value is reported as 3–4 fold.
In the case of `CC(C)(C)c1cc(C(=O)/C(C#N)=N/Nc2cccc([N+](=O)[O-])c2)no1` [Compound 14, 2-(5-tert-Butylisoxazol-3-yl)-N′-(3-nitrophenyl)-2-oxoacetohydrazonoyl Cyanide], the “fold increase in potency compared to nonsubstituted analogue 8” value is reported as “about 2 fold”.
In the case of `CC(C)(C)c1cc(C(=O)/C(C#N)=N/Nc2cccc(C(F)(F)F)c2)no1` [Compound 13, 2-(5-tert-Butylisoxazol-3-yl)-N′-(3-trifluoromethylphenyl)-2-oxoacetohydrazonoyl Cyanide], the “fold increase in potency compared to nonsubstituted analogue 8” value is reported as “approximately 5 fold”.

Tested on: not listed separately
Assay: Solubility in water by HPLC analysis
Conditions: water
Work on `CC(C)(C)c1cc(C(=O)/C(C#N)=N/Nc2cc(Cl)c(Cl)c(Cl)c2)no1` [Compound 35, 2-(5-tert-Butylisoxazol-3-yl)-2-oxo-N′-(3,4,5-trichlorophenyl)acetohydrazonoyl Cyanide] yielded a solubility at 24 h of 12.7 ± 1 µg/mL (≈ 31.8 µM).
`CC(C)(C)c1cc(C(=O)/C(C#N)=N/Nc2cc(F)c(F)c(F)c2)no1` [Compound 36, 2-(5-tert-Butylisoxazol-3-yl)-2-oxo-N′-(3,4,5-trifluorophenyl)acetohydrazonoyl Cyanide] gave a solubility at 24 h of 75.7 ± 7.1 µg/mL (≈ 216 µM).
Molecule `N#C/C(=N\Nc1cc(Cl)c(Cl)c(Cl)c1)C(=O)c1cc(C2CCCCC2)on1` [Compound 47, 2-(5-Cyclohexylisoxazol-3-yl)-2-oxo-N′-(3,4,5-trichlorophenyl)acetohydrazonoyl Cyanide] has a solubility at 24 h of 10.1 ± 0.79 µg/mL (≈ 23.7 µM).
In the case of `CC(C)(C)c1cc(C(=O)/C(C#N)=N/Nc2ccc(F)c(Cl)c2)no1` [Compound 31, 2-(5-tert-Butylisoxazol-3-yl)-N′-(3-chloro-4-fluorophenyl)-2-oxoacetohydrazonoyl Cyanide], the solubility at 24 h is reported as 82.6 ± 3.6 µg/mL (≈ 237 µM).
